Assay results reported in patent publication US11555212B2, “Process for the production of sulfated phenolic compounds using modified Escerichia coli” (CysBio ApS, priority 2016, dated 2023).

Legend:
[1] = molecular target: T1, SULT1A1 from rat (Rattus norvegicus) (Rattus norvegicus, UniProt P17988); experiment: Percent reduction in concentration of phenolic compounds by E. coli expressing a sulfotransferase, compared to control strain; assay type: cell-based; details: compared to the control strain, M9, 1 mM IPTG, single substrate at start concentration of Table 14, overnight 37° C.; for Percent reduction in concentration, SULT1A1 + CysDNCQ: E. coli BL21(DE3)pLysS expressing SULT1A1 rat + CysDNCQ; for Percent reduction in concentration, SULT1A1: E. coli BL21(DE3)pLysS expressing SULT1A1 rat
T1 construct: 1, 3, 4, 5, and 6 were cloned amplified from liver tissue cDNA; expressed in transfected cells
Method: (§1) The concentration of p-courmaric acid (pHCA) and zosteric acid in the supernatant was quantified by high performance liquid chromatography (HPLC) and compared to chemical standards. HPLC was done on a Thermo setup using a HS-F5 column and mobile phases: 5 mM ammonium formate pH 4.0 (A) and acetonitrile (B) at 1.5 mL min-1, using a gradient elution starting at 5% B. From 0.5 min after injection to 7 min, the fraction of B increased linearly from 5% to 60%, and between 9.5 min and 9.6 the fraction of B decreased back to 5%, and remaining there until 12 min. pHCA and zosteric acid were quantified by measuring absorbance at 277 nm.
To further test the range of substrates that can be sulfated, we used strains carrying plasmids expressing SULT1A1 from rat (Rattus norvegicus) and SULT1E1 from chicken (Gallus gallus domesticus) (Example 1) cloned into the expression vector pETDuet-1, and cysDNCQ from E. coli cloned into expression vector pRSFDuet-1 (Example 2). The plasmids were introduced into the E. coli expression strain BL21(DE3)pLysS as described previously, selecting for transformants with appropriate antibiotics, namely 34 μg mL^−1 chloramphenicol for pLysS, 100 μg mL^−1 ampicillin for pETDuet-1-based vectors, and 100 μg mL^−1 kanamycin for pRSFDuet-1-based vectors. […] A control strain without a sulfotransferase gene or cysDNCQ operon was also examined.
The strains were precultured in 2×YT medium with appropriate antibiotics. 10 μL of these precultures were used to inoculate M9 media with 1 mM IPTG and none or a single substrate for sulfation. After overnight growth at 37° C., 300 rpm the supernatants were withdrawn and examined by HPLC as described in Example 1. The compounds were detected by UV absorbance.

[2] = test system: SULT1E1 from chicken (Gallus gallus domesticus); experiment: as above; assay type: cell-based; details: E. coli BL21(DE3)pLysS expressing SULT1E1 chicken, compared to the control strain; M9, 1 mM IPTG, single substrate at start concentration of Table 14; overnight 37° C.
[3] = molecular target: T2, SULT1A1 from Rattus norvegicus (Rattus norvegicus, UniProt P17988); experiment: Percent reduction of phenolic compounds by E. coli KRX expressing a sulfotransferase; assay type: cell-based; details: M9, 0.1 mM IPTG, 0.1% rhamnose, compound 50 μM, overnight 37° C.
T2 construct: 1, 3, 4, 5, and 6 were cloned amplified from liver tissue cDNA; expressed in transfected cells
Method: M9 medium containing 0.2% glucose, 0.1 mM IPTG, 0.1% rhamnose, and 100 μg/mL ampicillin was prepared.
The strains described above were grown in 2×YT medium with 100 μg/mL ampicillin overnight before their were used to inoculate the media by 50-fold dilution. The cultures were grown overnight with vigorous shaking at 37° C. […] The compounds were detected by UV absorbance except for 4-methylbelliferone, which was measured by fluorescence.

[4] = molecular target: T3, SULT1A1 Rattus norvegicus (Rattus norvegicus, UniProt P17988); experiment: Percent conversion of substrates by E. coli expressing a sulfotransferase; assay type: cell-based; details: M9, pHCA 100 μM, resveratrol 95 μM or kaempferol 87 μM, overnight 37° C.
T3 construct: 1, 3, 4, 5, and 6 were cloned amplified from liver tissue cDNA; expressed in transfected cells
Method: as §1
(§2) Different sulfotransferases were examined for their substrate specificities against three substrates. We tested the sulfotransferases mentioned in example 1, as well as additional ones. The genes encoding these were cloned as described in example 1 using the primers shown in the table below from cDNA libraries of the respective organisms, except for the SULT1A1 from rat (Rattus norvegicus) codon-optimized for E. coli (described above). The resulting vectors were transformed into BL21(DE3)pLysS.
(§3) The resulting strains were grown in M9 medium containing either 100 μM pHCA, 95 μM resveratrol or 87 μM kaempferol. The cultures were grown overnight at 37° C., 300 rpm. The following day the supernatants were isolated and examined by HPLC as described in example 1.

[5] = test system: SULT1C1 Gallus gallus domesticus; experiment: as above; assay type: cell-based; details: E. coli BL21(DE3)pLysS expressing SULT1C1 Gallus gallus domesticus; M9; pHCA 100 μM, resveratrol 95 μM or kaempferol 87 μM; overnight 37° C.
Method: as §1, §2, §3

[6] = test system: SULT1A1 Sus scrofa domesticus; experiment: as above; assay type: cell-based; details: E. coli BL21(DE3)pLysS expressing SULT1A1 Sus scrofa domesticus; M9; pHCA 100 μM, resveratrol 95 μM or kaempferol 87 μM; overnight 37° C.
Method: as §1, §2, §3

[7] = molecular target: T4, SULT1A1 Canis lupus familiaris (Canis lupus familiaris, UniProt Q29476); experiment: as above; assay type: cell-based; details: E. coli BL21(DE3)pLysS expressing SULT1A1 Canis lupus familiaris; M9; pHCA 100 μM, resveratrol 95 μM or kaempferol 87 μM; overnight 37° C.
T4 construct: 1, 3, 4, 5, and 6 were cloned amplified from liver tissue cDNA; expressed in transfected cells; host or cells: E. coli BL21(DE3)pLysS
Method: as §1, §2, §3

SULT1A1 Equus caballus = experiment: as above; assay type: cell-based; details: E. coli BL21(DE3)pLysS expressing SULT1A1 Equus caballus; M9; pHCA 100 μM, resveratrol 95 μM or kaempferol 87 μM; overnight 37° C.
Method: as §1, §2, §3

SULT1A1 human = molecular target: T5, SULT1A1 human (Homo sapiens, UniProt P50225, V223M); experiment: as above; assay type: cell-based; details: E. coli BL21(DE3)pLysS expressing SULT1A1 human; M9; pHCA 100 μM, resveratrol 95 μM or kaempferol 87 μM; overnight 37° C.
T5 construct: expressed in transfected cells; host or cells: E. coli BL21(DE3)pLysS
Method: as §1, §2, §3

[8] = test system: SULT1E1 Gallus gallus domesticus; experiment: as above; assay type: cell-based; details: E. coli BL21(DE3)pLysS expressing SULT1E1 Gallus gallus domesticus; M9; pHCA 100 μM, resveratrol 95 μM or kaempferol 87 μM; overnight 37° C.
Method: as §1, §2, §3

[9] = test system: H. ochraceum DSM 14365 Hoch_6098; experiment: Percent reduction of compounds by E. coli KRX expressing distantly related sulfotransferases; assay type: cell-based, Haliangium ochraceum DSM 14365; details: E. coli KRX expressing H. ochraceum DSM 14365 Hoch_6098; 100 μM resveratrol, 20 μM kaempferol or 50 μL 3-hydroxy-4-methoxycinnamic acid
Description: The gene (sequence SEQ ID NO: 104) encoding Hoch_6098 (sequence SEQ ID NO: 105) from the bacterium Haliangium ochraceum DSM 14365 was codon-optimized for E. coli and synthesized as in example 1.
(§4) The genes were cloned into the vector pETDuet-1 as described in Example 1, and the resulting vectors were transformed into E. coli KRX (obtained from Promega).

D. rerio SULT6B1 = experiment: as above; assay type: cell-based, Danio rerio; details: 100 μM resveratrol, 20 μM kaempferol or 3-hydroxy-4-methoxycinnamic acid
Description: The gene (sequence SEQ ID NO: 102) encoding SULT6B1 (sequence SEQ ID NO: 103) from Danio rerio was codon-optimized for E. coli and synthesized as in example 1.
as §4

D. rerio SULT1ST1 = molecular target: T6, D. rerio SULT1ST1 (Danio rerio, UniProt Q6PH37); experiment: as above; assay type: cell-based; details: 100 μM resveratrol, 20 μM kaempferol or 3-hydroxy-4-methoxycinnamic acid
T6 construct: expressed in transfected cells; host or cells: E. coli KRX (Promega), vector pETDuet-1
T6 sequence (Q6PH37 1-299): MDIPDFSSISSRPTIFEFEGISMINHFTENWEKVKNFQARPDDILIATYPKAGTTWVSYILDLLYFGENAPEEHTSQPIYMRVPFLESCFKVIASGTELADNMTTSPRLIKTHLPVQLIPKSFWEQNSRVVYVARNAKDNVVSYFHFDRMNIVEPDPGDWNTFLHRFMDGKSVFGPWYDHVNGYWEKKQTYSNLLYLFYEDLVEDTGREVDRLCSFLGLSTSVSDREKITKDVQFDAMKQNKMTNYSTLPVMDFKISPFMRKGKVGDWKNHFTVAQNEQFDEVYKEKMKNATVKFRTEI

[10] = E. coli BL21(DE3)pLysS expressing SULT1A1 Rattus norvegicus (Codon-optimized for E. coli)
[11] = E. coli BL21(DE3)pLysS expressing SULT1A1 Rattus norvegicus

T3 sequence (P17988 whole entry): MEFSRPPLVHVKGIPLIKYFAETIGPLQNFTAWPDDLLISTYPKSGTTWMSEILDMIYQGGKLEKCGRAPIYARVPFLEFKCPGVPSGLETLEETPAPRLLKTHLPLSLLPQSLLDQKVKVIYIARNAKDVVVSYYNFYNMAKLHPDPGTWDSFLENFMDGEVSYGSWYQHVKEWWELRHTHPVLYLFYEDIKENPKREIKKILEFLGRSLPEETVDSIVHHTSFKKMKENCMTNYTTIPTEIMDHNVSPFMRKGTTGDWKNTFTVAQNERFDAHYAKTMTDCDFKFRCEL
T1 sequence (P17988 whole entry): as above
T2 sequence (P17988 whole entry): as above
T5 sequence (P50225 whole entry V223M): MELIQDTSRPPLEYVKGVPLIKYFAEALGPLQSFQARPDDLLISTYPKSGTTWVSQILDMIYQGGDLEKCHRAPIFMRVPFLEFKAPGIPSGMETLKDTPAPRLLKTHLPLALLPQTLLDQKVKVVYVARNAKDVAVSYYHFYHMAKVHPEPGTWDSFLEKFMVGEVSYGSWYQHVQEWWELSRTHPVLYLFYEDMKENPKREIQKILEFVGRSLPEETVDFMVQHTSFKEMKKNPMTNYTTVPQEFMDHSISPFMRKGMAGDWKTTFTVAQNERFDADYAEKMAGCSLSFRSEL
T4 sequence (Q29476 whole entry): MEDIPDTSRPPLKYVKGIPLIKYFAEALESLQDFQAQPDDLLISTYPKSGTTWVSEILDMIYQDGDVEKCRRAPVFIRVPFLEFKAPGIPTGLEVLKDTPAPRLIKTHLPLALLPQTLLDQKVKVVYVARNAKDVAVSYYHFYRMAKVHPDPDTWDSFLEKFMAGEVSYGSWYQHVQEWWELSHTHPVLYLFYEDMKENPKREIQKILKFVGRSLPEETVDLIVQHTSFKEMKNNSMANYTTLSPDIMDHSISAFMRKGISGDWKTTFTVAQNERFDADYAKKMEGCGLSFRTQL

Molecule	Percent reduction in concentration, SULT1A1 + CysDNCQ [1] [%]	Percent reduction in concentration, SULT1A1 [1] [%]	Percent reduction in concentration, SULT1E1 [2] [%]	Percent reduction, SULT1A1 [3] [%]	further results
COc1ccc(C=CC(=O)O)cc1O [3-Hydroxy-4-methoxycinnamic acid]	62	51	–	–	–
O=C(O)C(=O)Cc1ccc(O)cc1 [4-Hydroxyphenylpyruvic acid, 4-hydroxyphenylpyruvic acid]	64	47	100	–	–
CC(=O)Nc1ccc(O)cc1 [4-acetamidophenol, reference compound]	30	24	10	–	–
O=C1C[C@@H](c2ccc(O)cc2)Oc2cc(O)cc(O)c21 [Naringenin]	–	–	–	60	–
O=[N+]([O-])c1ccc(O)cc1 [4-nitrophenol]	–	–	–	30	–
O=c1c(O)c(-c2ccc(O)c(O)c2)oc2cc(O)ccc12 [fisetin]	100	98	98	–	–
O=C(O)CCc1ccc(O)cc1 [3-(4-Hydroxyphenyl)propionic acid]	7	3	1	–	–
COc1cc(C(=O)O)ccc1O [Vanillic acid, vanillic acid]	39	33	0	–	–
CCc1ccc(O)cc1 [4-ethylphenol]	–	–	–	100	–
COc1cc(/C=C/C(=O)O)ccc1O [Ferulic acid, ferulic acid]	100	72	67	–	–
4-ethylguaiacol	–	–	–	50	–
O=c1cc(-c2ccc(O)cc2)oc2cc(O)cc(O)c12 [Apigenin]	99	41	98	–	–
O=c1c(O)c(-c2ccc(O)cc2)oc2cc(O)cc(O)c12 [kaempferol, Kaempferol]	–	–	–	–	Percent conversion of the substrate [4, 10]: 38%; Percent conversion of the substrate [4, 11]: 95%; Percent conversion of the substrate [5]: 80%; Percent conversion of the substrate [6]: 45%; Percent conversion of the substrate [7]: 60%; Percent conversion of the substrate (SULT1A1 Equus caballus): 96%; Percent conversion of the substrate (SULT1A1 human): 97%; Percent conversion of the substrate [8]: 47%; Percent reduction [9]: 100%; Percent reduction (D. rerio SULT6B1): 44%
Oc1ccc(C=Cc2cc(O)cc(O)c2)cc1 [resveratrol]	–	–	–	–	Percent conversion of the substrate [4, 10]: 58%; Percent conversion of the substrate [4, 11]: 93%; Percent conversion of the substrate [5]: 100%; Percent conversion of the substrate [6]: 88%; Percent conversion of the substrate [7]: 61%; Percent conversion of the substrate (SULT1A1 Equus caballus): 100%; Percent conversion of the substrate (SULT1A1 human): 36%; Percent conversion of the substrate [8]: 100%; Percent reduction [9]: 7%; Percent reduction (D. rerio SULT1ST1): 80%
O=C(O)c1ccc(O)cc1 [4-hydroxybenzoic acid]	6	5	4	–	–
C=Cc1ccc(O)cc1 [4-vinylphenol]	–	–	–	100	–
Cc1cc(=O)oc2cc(O)ccc12 [4-methylbelliferone]	–	–	–	100	–
O=c1cc(-c2ccc(O)c(O)c2)oc2cc(O)cc(O)c12 [Luteolin]	37	27	0	–	–
COc1cc(/C=C/C(=O)O)cc(OC)c1O [Sinapic acid, sinapic acid]	–	–	–	31	–
O=c1c(O)c(-c2ccc(O)c(O)c2)oc2cc(O)cc(O)c12 [Quercetin]	81	75	74	–	–
